Laboratory results as given in US20110027185A1, “Methods of Screening for Anti-Angiogenic Compounds” (priority 2007, published 2011).

Key:
[1] = test system: PC-3 cell lines of human prostate cancer; details: cited from earlier work
[2] = test system: Lewis lung adenocarcinoma; details: Lewis lung adenocarcinoma model; cited from earlier work
HUVEC [3] = experiment: HUVEC growth inhibition assay (NCI); type: cell-based, human; details: Homo sapiens, 72 h, crystal violet
Protocol: Angiogenesis assays were provided by the NCI, details of the assay protocols are given below. In each assays TNP-470 and paclitaxel (Taxol®) were used as reference compounds. HUVEC (1.5×10^3) were plated in a 96-well plate in 100 μL of EBM-2 (Clonetic #CC3162). […] On day 0, one plate was stained with 0.5% crystal violet in 20% methanol for 10 minutes, rinsed with water, and air-dried. The remaining plates were incubated for 72 h at 37° C. After 72 h, plates were stained with 0.5% crystal violet in 20% methanol, rinsed with water and air-dried. The stain was eluted with 1:1 solution of ethanol:0.1 M sodium citrate (including day 0 plate), and absorbance was measured at 540 nm with an ELISA reader (Dynatech Laboratories). Day 0 absorbance was subtracted from the 72 h plates and data was plotted as percentage of control proliferation (vehicle treated cells).

[4] = test system: protein synthesis in the cultured rat cells; details: cited from earlier work
FBP21 = biological target: T1, FBP21 (Homo sapiens, UniProt O75554); experiment: Phage display biopanning with biotinylated bait, Human Colon Tumour Library; type: binding; details: SDS and E. coli elution
T1 construct: encode 99 amino acids in frame with the phage coat protein of which a segment of 83 residues share 100% homology with FBP21; purchased Novagen; host or cells: T7 phage amplified in E. coli BLT5403
T1 sequence (O75554 with tags, fused parts or gaps): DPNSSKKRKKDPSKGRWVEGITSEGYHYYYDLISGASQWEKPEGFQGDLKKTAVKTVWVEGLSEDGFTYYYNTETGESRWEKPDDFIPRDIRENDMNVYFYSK
Protocol: Streptavidin wells were incubated with 1 μM biotinylated probe at 4° C. overnight to prepare the wells for biopanning. After incubation, unbound biotinylated probe was removed from the well by washing with phosphate buffered saline (PBS). Wells were then blocked with blocking solution (3% skimmed milk in PBS) for at least one hour at room temperature. Blocked wells were then briefly washed with PBS and were ready for biopanning use. […] In the first round of biopanning, 0.15 mL of amplified phage library was added to an empty streptavidin coated well and incubated at room temperature for at least 1 hour. This step was included to deselect any phage displaying streptavidin binding proteins. After incubation, the phage were removed from the well and mixed with 50 μL 4× blocking solution (12% skimmed milk in PBS) and incubated at room temperature for at least one hour. 0.125 mL of blocked phage library was added to each pre-prepared biotinylated well and incubated at room temperature for at least one hour. […] After incubation, unbound phage were removed from the well with wash solution. The wash solution was varied depending on the round of biopanning. For first round of biopanning PBS1 was used. For subsequent rounds the stringency of the wash was increased by using sequentially PBS2, PBS3 and PBS4 (see Table I). […]

[5] = test system: WiDr cell lines of human colon cancer; details: cited from earlier work
capillary tube formation = details: rat aorta matrix culture model, cited from earlier work
HUVEC [6] = experiment: HUVEC cord formation assay on matrigel (NCI); type: cell-based, human; details: Homo sapiens, 24 h
Protocol: Angiogenesis assays were provided by the NCI, details of the assay protocols are given below. In each assays TNP-470 and paclitaxel (Taxol®) were used as reference compounds. Matrigel (60 μL of 10 mg/mL; Collaborative Lab #35423) was placed in each well of an ice-cold 96-well plate. The plate was allowed to sit at room temperature for 15 minutes then it was incubated at 37° C. for 30 minutes to permit the matrigel to polymerize. In the mean time, HUVEC were prepared in EGM-2 (Clonetic #CC3162) at a concentration of 2×10^5 cells/mL. […] The cells (500 μL) and the drug at 2 times concentration (500 μL) were mixed and 200 μL of this suspension was placed in duplicate on the polymerized matrigel. After 24 h incubation, triplicate pictures were taken for each concentration using a Bioquant Image Analysis system. Drug effect (IC50) is assessed compared to untreated controls by measuring the length of cords formed and number of junctions.

[7] = test system: human umbilical vein endothelial cells (HUVEC); details: cited from earlier work
[8] = test system: WiDr cells induced angiogenesis; details: 1.8 mg/kg intraperitoneal injection, mouse dorsal air sac model; cited from earlier work
[9] = test system: VEGFxxx and VEGFxxxb expression in RPE cells; experiment: VEGF isoform ELISA of media of treated RPE cells; type: cell-based; details: 0.5 μM or 5 μM, 72 hours
Protocol: Media was sampled after 72 hours treatment, and assessed for total VEGF and VEGFxxxb expression (see Bates et al., 2002, Woolard et al., 2004 and Varey et al., 2008 for methods).

HUVEC [10] = experiment: HUVEC cell migration (chemotaxis) assay, Boyden chamber (NCI); type: cell-based, human; details: Homo sapiens, 5 h
Protocol: Angiogenesis assays were provided by the NCI, details of the assay protocols are given below. In each assays TNP-470 and paclitaxel (Taxol®) were used as reference compounds. Migration was assessed using the 48-well Boyden chamber and 8 μm pore size collagen-coated (10 μg/mL rat tail collagen; Collaborative Laboratories) polycarbonate filters (Osmonics, Inc.). The bottom chamber wells received 27-29 μL of DMEM medium alone (baseline) or medium containing chemo-attractant (bFGF, VEGF or Swiss 3T3 cell conditioned medium). The top chambers received 45 μL of HUVEC cell suspension (1×10^6 cells/mL) prepared in DMEM+1% BSA with or without test compound. After 5 h incubation at 37° C., the membrane was rinsed in PBS, fixed and stained in Diff-Quick solutions. The filter was placed on a glass slide with the migrated cells facing down and cells on top were removed using a Kimwipe. The testing was performed in 4-6 replicates and five fields were counted from each well. Negative, unstimulated, control values were subtracted from stimulated control and drug treated values and data was plotted as mean migrated cell±S.D. The IC50 was calculated from the plotted data.

B16-BL6 melanoma cells = details: same dosage (1.8 mg/kg); cited from earlier work

For `C[C@@H]1C[C@H](C)C[C@H](C)[C@@H](O)CC(=O)O[C@H]([C@@H]2CCC[C@H]2C(=O)O)C/C=C/C=C(/C#N)[C@H](O)[C@@H](C)C1` [Borrelidin], the “effect against PC-3 cell lines” value [1] is listed as “also against PC-3 cell lines”, the “propagation of metastatic nodules after removal of the primary tumour” value [2] is listed as “weakly inhibited” and the IC50 (HUVEC [3]) is listed as 3.25 nM. For the same compound, the “anti-angiogenesis IC50 lower than IC50 for inhibition of protein synthesis” value [4] was 50 fold, the “inhibition of protein synthesis, IC50” value ([4]; cultured rat cells) was 20 ng/mL and the “identification of FBP21 fragment by biopanning (binding)” value (FBP21) was “consistently identified an FBP21 fragment”. For the same compound, the “effect against WiDr cell lines” value [5] was “effective against WiDr cell lines”, the “inhibition of capillary tube formation, IC50” value (capillary tube formation) was 0.4 ng/mL and the IC50 (capillary tube formation; read-out: inhibition of capillary tube formation, IC50) was 0.8 nM. For the same compound, the IC50 (HUVEC [6]) was 46.5 nM, the “anti-proliferative activity towards HUVEC, IC50” value ([7]; cell growth assay) was 6 ng/mL and the “HUVEC anti-proliferative IC50 weaker than anti-angiogenesis activity” value ([7]; measured in the same medium) was 15 fold. For the same compound, the “increment of vascular volume induced by WiDr cells” value [8] was “significantly reduce the increment of vascular volume”, the “VEGFxxx expression (ELISA)” value [9] was “significant downregulation” and the “VEGFxxxb expression (ELISA)” value [9] was “significant upregulation”. For the same compound, the IC50 (HUVEC [10]) was 63 nM and the “formation of spontaneous lung metastases of B16-BL6 melanoma cells” value (B16-BL6 melanoma cells) was “effective for the inhibition of the formation of spontaneous lung metastases”.
